This note sets out measurements from patent US9695174B2, “Inhibitor of breast cancer resistance protein (BCRP)” (Millennium Pharmaceuticals, Inc., priority 2013, dated 2017).

One data set has as its target BCRP efflux transporter (Homo sapiens (Human), UniProt Q9UNQ0). In words: Bi-directional transport study in Caco-2 cells, inhibition of BCRP efflux of 3H-estrone-3-sulfate. How it is done:
To determine potency of compounds on inhibition of transporters, bi-directional transport studies are performed in Caco-2 cells (American Type Culture Collection, Manassas, Va.) at 37° C. in air, according toXia et al. (Expression, localization and functional characteristics of breast cancer resistance protein in Caco-2 cells. Drug Met. Disp., 33 (5): 637-643 (2005)). Prior to each experiment, the confluent cell monolayers on Transwell™ inserts are washed and equilibrated for 30 minutes with transport media (Hank's balanced salt solution (HBSS) containing 10 mM of N-2-hydroxyethyl-piperazine-N′-2-ethanesulfonic acid (HEPES) and 10 mM of glucose, pH 7.4). […] At preset time points, 0.05 mL aliquot of receiving solutions are sampled from the basolateral side (for A-to-B transport) or from the apical side (for B-to-A transport), and replaced immediately with an equal amount of fresh transport media except at the last time point (the end of the incubation). The radioactivity in each sample is measured by 1450 MicroBeta TriLux, a microplate scintillation and luminescence counter (PerkinElmer Life Sciences). Radioactivity (^3H) of the dosing solution is measured and used to calculate the initial donor concentration of the substrate.

A further data set addresses P-gp transporter (Homo sapiens (Human), UniProt P08183). Briefly: Bi-directional transport study in Caco-2 cells, inhibition of P-gp efflux of 3H-digoxin. The format is cell-based.
The target in another data set is CYP2C8 (Homo sapiens (Human), UniProt P10632). Briefly: CYP inhibition in human liver microsomes (amodiaquine). To be noted: read-out: CYP inhibition IC50 2C8. The format is in vitro ADME. Here is the method: (§1) Reactions are initiated by the addition of β-NADPH (2 mM) and MgCl2 (3 mM) in 0.1-M potassium phosphate buffer, pH 7.4. Reactions are incubated for 12 minutes at 37° C., and then terminated by the addition of an equal volume of ACN containing 1-μM carbutamide (IS). The plates are refrigerated at approximately 4° C. for 15 minutes and then centrifuged in order to pellet the precipitated proteins. The supernatants are analyzed by LC/MS/MS for the amount of metabolite formed by each CYP isozyme.

The test system of the next data set is CYP3A4/5. In words: CYP inhibition in human liver microsomes (midazolam). It counts as in vitro ADME. To be noted: midazolam substrate, read-out: CYP inhibition IC50 3A-M. Here is the method:
as §1

The next data set deals with CYP2D6 (Homo sapiens (Human), UniProt P10635). Briefly: CYP inhibition in human liver microsomes (dextromethorphan). It counts as in vitro ADME. To be noted: read-out: CYP inhibition IC50 2D6. Here is the method:
as §1

The target in the next data set is CYP1A2 (Homo sapiens (Human), UniProt P05177). In words: CYP inhibition in human liver microsomes (phenacetin). As to conditions: read-out: CYP inhibition IC50 1A2. It counts as in vitro ADME. How it is done: as §1
For a further data set, the target named is CYP2C9 (Homo sapiens (Human), UniProt P11712). In words: CYP inhibition in human liver microsomes (diclofenac). It counts as in vitro ADME. As to conditions: read-out: CYP inhibition IC50 2C9. Here is the method: as §1
Data set [1] is described as follows: In vivo pharmacokinetic profile in Sprague-Dawley rats. Here is the method:
Approximately 200 μL of whole blood is collected from the jugular vein catheter of each animal into tubes containing the anticoagulant dipotassium ethylenediaminetetraacetic acid (K2EDTA) and is further processed into plasma at approximately 4° C. […] Pharmacokinetic analysis of the individual plasma concentration data is performed using a nonvalidated program (Phoenix™ WinNonlin®, Version 6.1 [Pharsight Corp (Mountain View, Calif., USA)]).

A further data set has as its target CYP2C19 (Homo sapiens (Human), UniProt P33261). Briefly: CYP inhibition in human liver microsomes (S-mephenytoin). It counts as in vitro ADME. To be noted: read-out: CYP inhibition IC50 2C19. How it is done: as §1
Setting [2] is: read-out: IC50 on BCRP efflux transporter, Caco-2 cells, substrate 3H-Estrone-3-sulfate (26 nM).
The mark [3] stands for this setting: Sprague-Dawley, rat, plasma, IV-JVC, 2 mg/kg.
Setting [4] is: Sprague-Dawley, rat, plasma, PO-JVC, 20 mg/kg.

Like-named read-outs stand apart in the source and are kept apart here.

BCRP efflux transporter, sequence (Q9UNQ0 whole entry): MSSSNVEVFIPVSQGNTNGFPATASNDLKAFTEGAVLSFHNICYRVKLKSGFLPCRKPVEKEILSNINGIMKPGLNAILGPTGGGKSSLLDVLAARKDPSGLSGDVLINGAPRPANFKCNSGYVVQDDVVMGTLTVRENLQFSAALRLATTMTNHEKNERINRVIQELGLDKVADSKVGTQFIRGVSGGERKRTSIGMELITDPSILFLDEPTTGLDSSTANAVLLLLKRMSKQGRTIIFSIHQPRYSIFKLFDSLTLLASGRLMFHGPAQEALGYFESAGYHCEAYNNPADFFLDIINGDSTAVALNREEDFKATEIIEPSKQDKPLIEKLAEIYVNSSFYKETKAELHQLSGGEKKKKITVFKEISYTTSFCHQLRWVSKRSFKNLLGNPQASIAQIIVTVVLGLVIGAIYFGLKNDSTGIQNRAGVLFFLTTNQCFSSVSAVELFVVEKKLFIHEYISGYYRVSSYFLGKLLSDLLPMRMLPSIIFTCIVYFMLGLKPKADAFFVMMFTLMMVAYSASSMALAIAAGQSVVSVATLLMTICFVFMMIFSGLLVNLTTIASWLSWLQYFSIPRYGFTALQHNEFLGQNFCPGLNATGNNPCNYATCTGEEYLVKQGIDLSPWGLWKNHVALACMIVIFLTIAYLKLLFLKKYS
CYP2C19, sequence (P33261 whole entry): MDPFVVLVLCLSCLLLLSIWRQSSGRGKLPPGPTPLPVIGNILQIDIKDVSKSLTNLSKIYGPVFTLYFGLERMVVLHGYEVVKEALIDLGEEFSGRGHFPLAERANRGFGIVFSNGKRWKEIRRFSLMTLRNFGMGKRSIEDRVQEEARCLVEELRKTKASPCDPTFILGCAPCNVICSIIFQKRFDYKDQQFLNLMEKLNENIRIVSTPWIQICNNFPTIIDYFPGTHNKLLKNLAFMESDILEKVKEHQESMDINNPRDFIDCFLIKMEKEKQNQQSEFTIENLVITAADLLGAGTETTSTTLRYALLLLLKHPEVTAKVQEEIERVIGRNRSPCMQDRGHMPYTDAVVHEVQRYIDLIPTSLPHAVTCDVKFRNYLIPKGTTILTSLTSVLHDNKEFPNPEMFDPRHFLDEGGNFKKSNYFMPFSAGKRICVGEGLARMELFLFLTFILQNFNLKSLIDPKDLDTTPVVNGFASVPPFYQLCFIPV
CYP2C9, sequence (P11712 whole entry): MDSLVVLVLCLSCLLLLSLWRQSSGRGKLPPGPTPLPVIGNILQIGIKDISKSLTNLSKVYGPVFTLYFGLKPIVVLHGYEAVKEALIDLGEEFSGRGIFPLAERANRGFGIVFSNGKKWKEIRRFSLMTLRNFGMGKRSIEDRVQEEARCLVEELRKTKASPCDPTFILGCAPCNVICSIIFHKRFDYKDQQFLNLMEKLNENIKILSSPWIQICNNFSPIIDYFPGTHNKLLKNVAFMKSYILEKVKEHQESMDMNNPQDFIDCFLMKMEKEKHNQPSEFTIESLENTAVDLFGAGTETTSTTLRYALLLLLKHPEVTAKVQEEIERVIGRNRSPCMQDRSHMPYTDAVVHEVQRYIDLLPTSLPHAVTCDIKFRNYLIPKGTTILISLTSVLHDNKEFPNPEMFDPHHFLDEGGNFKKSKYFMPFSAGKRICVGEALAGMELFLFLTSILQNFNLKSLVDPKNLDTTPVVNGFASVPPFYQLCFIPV
CYP2C8, sequence (P10632 whole entry): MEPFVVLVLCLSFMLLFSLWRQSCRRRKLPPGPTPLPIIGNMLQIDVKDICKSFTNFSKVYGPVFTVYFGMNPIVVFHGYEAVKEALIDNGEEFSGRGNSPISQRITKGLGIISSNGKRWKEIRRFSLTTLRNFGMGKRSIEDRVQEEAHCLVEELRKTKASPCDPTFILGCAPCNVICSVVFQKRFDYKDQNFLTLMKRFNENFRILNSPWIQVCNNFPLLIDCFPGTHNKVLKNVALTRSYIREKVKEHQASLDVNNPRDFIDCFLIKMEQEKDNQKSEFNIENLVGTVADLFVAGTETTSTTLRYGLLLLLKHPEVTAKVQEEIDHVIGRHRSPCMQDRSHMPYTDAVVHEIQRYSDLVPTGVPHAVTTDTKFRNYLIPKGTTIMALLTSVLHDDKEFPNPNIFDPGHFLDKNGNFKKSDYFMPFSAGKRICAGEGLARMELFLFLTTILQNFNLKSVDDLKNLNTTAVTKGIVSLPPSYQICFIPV
CYP1A2, sequence (P05177 whole entry): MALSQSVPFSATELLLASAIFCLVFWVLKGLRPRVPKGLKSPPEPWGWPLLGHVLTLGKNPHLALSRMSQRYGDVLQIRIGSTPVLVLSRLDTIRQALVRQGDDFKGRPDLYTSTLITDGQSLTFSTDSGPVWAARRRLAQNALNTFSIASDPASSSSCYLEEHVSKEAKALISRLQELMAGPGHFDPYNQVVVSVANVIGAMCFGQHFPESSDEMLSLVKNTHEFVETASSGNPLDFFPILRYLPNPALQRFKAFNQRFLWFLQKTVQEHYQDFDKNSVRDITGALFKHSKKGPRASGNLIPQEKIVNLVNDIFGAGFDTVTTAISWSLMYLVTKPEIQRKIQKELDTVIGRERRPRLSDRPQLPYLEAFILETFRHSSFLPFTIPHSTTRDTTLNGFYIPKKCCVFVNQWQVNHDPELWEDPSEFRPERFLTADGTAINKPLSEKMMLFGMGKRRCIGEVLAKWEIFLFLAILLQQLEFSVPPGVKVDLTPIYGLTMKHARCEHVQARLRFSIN
P-gp transporter, sequence (P08183 whole entry): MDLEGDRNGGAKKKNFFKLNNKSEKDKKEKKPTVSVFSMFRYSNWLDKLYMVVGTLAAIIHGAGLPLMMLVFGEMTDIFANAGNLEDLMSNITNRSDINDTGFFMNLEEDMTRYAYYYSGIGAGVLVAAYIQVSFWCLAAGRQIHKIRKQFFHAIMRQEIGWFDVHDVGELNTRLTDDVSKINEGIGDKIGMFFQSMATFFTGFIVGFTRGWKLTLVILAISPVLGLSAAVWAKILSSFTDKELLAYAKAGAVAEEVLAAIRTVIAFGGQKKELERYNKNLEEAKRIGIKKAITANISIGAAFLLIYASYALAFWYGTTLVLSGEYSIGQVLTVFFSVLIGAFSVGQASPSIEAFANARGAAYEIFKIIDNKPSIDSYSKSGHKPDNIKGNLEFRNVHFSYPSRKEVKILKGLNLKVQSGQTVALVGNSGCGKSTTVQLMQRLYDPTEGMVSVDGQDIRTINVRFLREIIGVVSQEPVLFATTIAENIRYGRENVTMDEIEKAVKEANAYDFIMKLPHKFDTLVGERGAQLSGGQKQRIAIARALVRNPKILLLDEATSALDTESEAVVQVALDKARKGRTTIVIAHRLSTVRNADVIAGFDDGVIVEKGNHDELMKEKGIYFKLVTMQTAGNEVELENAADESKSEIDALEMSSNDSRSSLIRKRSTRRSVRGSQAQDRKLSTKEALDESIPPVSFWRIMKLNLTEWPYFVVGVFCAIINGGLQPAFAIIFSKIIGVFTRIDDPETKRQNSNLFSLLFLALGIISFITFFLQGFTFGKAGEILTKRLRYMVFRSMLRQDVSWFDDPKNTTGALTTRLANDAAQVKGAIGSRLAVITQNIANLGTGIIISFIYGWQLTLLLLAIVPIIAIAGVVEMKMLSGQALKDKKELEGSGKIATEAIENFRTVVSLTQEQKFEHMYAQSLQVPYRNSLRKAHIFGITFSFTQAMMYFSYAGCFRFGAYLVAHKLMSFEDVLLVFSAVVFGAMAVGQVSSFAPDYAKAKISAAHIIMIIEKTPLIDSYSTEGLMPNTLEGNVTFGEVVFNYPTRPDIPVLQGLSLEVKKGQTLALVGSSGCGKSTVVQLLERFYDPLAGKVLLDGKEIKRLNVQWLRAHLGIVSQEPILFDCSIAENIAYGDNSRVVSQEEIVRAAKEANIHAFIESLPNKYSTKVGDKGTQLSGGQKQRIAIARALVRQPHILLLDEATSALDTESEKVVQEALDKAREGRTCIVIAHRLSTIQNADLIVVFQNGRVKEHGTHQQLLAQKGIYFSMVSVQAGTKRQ
CYP2D6, sequence (P10635 whole entry): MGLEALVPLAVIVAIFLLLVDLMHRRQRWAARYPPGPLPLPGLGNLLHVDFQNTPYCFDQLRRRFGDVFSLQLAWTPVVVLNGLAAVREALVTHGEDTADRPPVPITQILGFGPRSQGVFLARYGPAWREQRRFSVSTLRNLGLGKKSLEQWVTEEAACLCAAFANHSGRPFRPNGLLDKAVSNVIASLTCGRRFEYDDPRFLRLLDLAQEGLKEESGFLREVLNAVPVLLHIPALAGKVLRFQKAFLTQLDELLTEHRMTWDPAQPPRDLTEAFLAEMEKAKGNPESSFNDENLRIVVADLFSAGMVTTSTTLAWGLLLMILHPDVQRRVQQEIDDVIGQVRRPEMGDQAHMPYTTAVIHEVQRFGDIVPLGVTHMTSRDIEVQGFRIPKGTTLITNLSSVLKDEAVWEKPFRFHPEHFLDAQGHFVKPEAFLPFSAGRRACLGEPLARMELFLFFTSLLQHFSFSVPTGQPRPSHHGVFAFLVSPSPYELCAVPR

On to `COc1ccc2c3c([nH]c2c1)[C@H](CC(C)C)N1C(=O)[C@H](C)NC(=O)[C@H]1C3` [Compound 4, (3S,6S,12aR)-6-isobutyl-9-methoxy-3-methyl-2,3,6,7,12,12a-hexahydropyrazino[1′,2′:1,6]pyrido[3,4-b]indole-1,4-dione], for which the half-maximal inhibitory concentration (IC50) at BCRP efflux transporter (setting [2]) was more than 10 µM.
The same measure, in the same setting: the value for `COc1cc2[nH]c3c(c2cc1OC)C[C@H]1C(=O)N[C@@H](C)C(=O)N1[C@H]3CC(C)C` [Compound 8, (3S,6S,12aS)-6-isobutyl-9,10-dimethoxy-3-methyl-2,3,6,7,12,12a-hexahydropyrazino[1′,2′:1,6]pyrido[3,4-b]indole-1,4-dione] was more than 10 µM.
On BCRP efflux transporter, `COc1cc2[nH]c3c(c2cc1OC)C[C@@H]1C(=O)N[C@@H](C)C(=O)N1[C@H]3CC(C)C` [Compound 8A, (3S,6S,12aR)-6-isobutyl-9,10-dimethoxy-3-methyl-2,3,6,7,12,12a-hexahydropyrazino[1′,2′:1,6]pyrido[3,4-b]indole-1,4-dione] had an IC50 of more than 10 µM.
With `COc1cc2[nH]c3c(c2cc1C)C[C@H]1C(=O)N[C@@H](C)C(=O)N1[C@H]3CC(C)C` [Compound 12, (3S,6S,12aS)-6-isobutyl-9-methoxy-3,10-dimethyl-2,3,6,7,12,12a-hexahydropyrazino[1′,2′:1,6]pyrido[3,4-b]indole-1,4-dione], the IC50 on BCRP efflux transporter (setting [2]) was 1.98 µM.
As for `COc1cc2[nH]c3c(c2cc1C)C[C@@H]1C(=O)N[C@@H](C)C(=O)N1[C@H]3CC(C)C` [Compound 12A, (3S,6S,12aR)-6-isobutyl-9-methoxy-3,10-dimethyl-2,3,6,7,12,12a-hexahydropyrazino[1′,2′:1,6]pyrido[3,4-b]indole-1,4-dione], the IC50 on BCRP efflux transporter (setting [2]) was more than 10 µM.
On to `COc1ccc2c3c([nH]c2c1)[C@H](CC(C)C)N1C(=O)[C@H](C)NC(=O)[C@@H]1C3` [Compound (I-1), (3S,6S,12aS)-6-isobutyl-9-methoxy-3-methyl-2,3,6,7,12,12a-hexahydropyrazino[1′,2′:1,6]pyrido[3,4-b]indole-1,4-dione], for which the IC50 is more than 30 µM against P-gp transporter (Caco-2 cells, substrate 3H-digoxin); more than 30 µM on CYP2C8; 0.6 µM on BCRP efflux transporter (setting [2]); more than 30 µM on CYP2D6; 15.4 µM at CYP1A2; more than 30 µM on CYP2C9. Besides, the IC50 on CYP2C19 worked out at 18.5 µM. Further, the “Selectivity for BCRP over P-gp” value at P-gp transporter (conclusion from Table 2) is on record as “selective BCRP inhibitor”. In addition, the IC50 at 12 min in the data set on CYP3A4/5 (pH 7.4, probe midazolam) is more than 30 µM. Further, in data set [1], the “Bioavailability (in words)” value was “high bioavailability”. Moreover, the “Clearance (in words)” value in [1] is “low clearance”. The same molecule registered a CL in data set [1] (IV-JVC, 2 mg/kg) of 25.7 mL/min/kg. The molecule also registered a Vss in data set [1] (IV-JVC, 2 mg/kg) of 1.64 L/kg. Further, the Tmax in data set [1] (PO-JVC, 20 mg/kg) turned out to be 1.3 h. Besides, the AUC in data set [1] (setting [3]) worked out at 4 µM·h; in data set [1] (setting [4]), 49 µM·h. The half-life in data set [1] (setting [3]) is 0.9 h; in [1] (setting [4]) it was 2 h. The Cmax in data set [1] (setting [4]) stood at 10.1 µM. In [1] (setting [4]), the bioavailability came to 123%.
On BCRP efflux transporter, `CC(C)C[C@H]1c2[nH]c3ccccc3c2C[C@H]2C(=O)N[C@@H](CCC(=O)OC(C)(C)C)C(=O)N21` [Ko134, reference compound] displayed an IC50 of 3.25 µM.
For the molecule `COc1ccc2c3c([nH]c2c1)[C@H](CC(C)C)N1C(=O)[C@H](CCC(=O)OC(C)(C)C)NC(=O)[C@@H]1C3` [Ko143, reference compound], at CYP2C8, the IC50 is more than 30 µM. Further, the concentration for half-maximal inhibition (IC50) with CYP3A4/5 was more than 30 µM. At CYP2D6, the IC50 was more than 30 µM. Besides, the half-maximal inhibitory concentration (IC50) on CYP1A2 amounted to 17.5 µM. For the same molecule, the IC50 at CYP2C9 amounted to 6 µM. In [1] (IV-JVC, 2 mg/kg), this molecule yielded an AUC0-24 hr of 0.0856 µM·h, a CL of 1100 mL/min/kg, a T1/2 of 0.2 h and a volume of distribution (Vss) of 14.8 L/kg. For the same molecule, in data set [1] (PO-JVC, 50 mg/kg), the AUC0-24 hr was 0.0722 µM·h, the Cmax amounted to 0.0214 µM, the F % amounted to 3% and the Tmax turned out to be 2 h. Moreover, the IC50 on CYP2C19 came to 14.7 µM.
